In ChEMBL document CHEMBL4196083, “Discovery of meta-sulfamoyl N-hydroxybenzamides as HDAC8 selective inhibitors” (Eur J Med Chem, 2018):
Each block holds one molecule with its values, some of them ahead of it.

What was measured:
[1] = molecular target: T1, Protein deacetylase HDAC6 (Homo sapiens, UniProt Q9UBN7); assay: Inhibition of HDAC6 in human HeLa cells assessed as increase in acetyl-tubulin level at 2 uM after 12 hrs by Western blot analysis; type: cell-based
T1 sequence (Q9UBN7 whole entry): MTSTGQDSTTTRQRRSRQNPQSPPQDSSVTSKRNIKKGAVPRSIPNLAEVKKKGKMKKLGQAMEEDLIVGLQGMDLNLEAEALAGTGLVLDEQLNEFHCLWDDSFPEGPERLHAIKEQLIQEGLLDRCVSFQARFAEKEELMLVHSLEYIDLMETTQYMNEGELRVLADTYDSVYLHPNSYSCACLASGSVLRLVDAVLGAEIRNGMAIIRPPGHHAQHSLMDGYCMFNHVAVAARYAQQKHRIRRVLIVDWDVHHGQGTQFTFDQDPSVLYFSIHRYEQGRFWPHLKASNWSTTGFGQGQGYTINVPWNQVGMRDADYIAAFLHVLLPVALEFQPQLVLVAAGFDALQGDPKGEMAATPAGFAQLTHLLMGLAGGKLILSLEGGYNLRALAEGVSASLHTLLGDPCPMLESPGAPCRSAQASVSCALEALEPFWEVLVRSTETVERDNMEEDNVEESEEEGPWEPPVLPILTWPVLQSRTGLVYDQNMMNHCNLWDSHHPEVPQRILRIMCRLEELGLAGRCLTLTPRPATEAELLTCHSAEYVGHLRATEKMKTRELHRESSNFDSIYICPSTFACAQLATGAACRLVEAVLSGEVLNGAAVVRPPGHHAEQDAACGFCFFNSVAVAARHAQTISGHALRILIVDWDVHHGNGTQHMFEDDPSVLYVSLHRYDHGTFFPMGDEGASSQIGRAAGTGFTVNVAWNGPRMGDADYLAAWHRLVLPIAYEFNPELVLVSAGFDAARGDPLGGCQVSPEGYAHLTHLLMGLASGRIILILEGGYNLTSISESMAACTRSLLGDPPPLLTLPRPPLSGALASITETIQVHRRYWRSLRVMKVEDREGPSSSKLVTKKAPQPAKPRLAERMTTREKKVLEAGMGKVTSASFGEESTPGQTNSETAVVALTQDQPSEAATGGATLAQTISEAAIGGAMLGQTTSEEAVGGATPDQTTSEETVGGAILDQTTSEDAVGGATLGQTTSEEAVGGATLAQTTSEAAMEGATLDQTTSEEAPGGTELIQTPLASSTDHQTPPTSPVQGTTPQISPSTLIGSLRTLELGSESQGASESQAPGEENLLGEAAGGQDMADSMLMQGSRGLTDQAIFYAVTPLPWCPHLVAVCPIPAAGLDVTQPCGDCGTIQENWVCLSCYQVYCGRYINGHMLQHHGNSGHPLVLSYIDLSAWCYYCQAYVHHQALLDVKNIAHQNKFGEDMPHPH

[2] = molecular target: Histone deacetylase (HDAC1 and HDAC2) (Homo sapiens, UniProt Q13547+Q92769); assay: Inhibition of HDAC1/2 in human HeLa nuclear extract using Boc-Lys(acetyl)-AMC as substrate preincubated for 5 mins followed by substrate addition measured after 30 mins by fluorescence assay; type: ADME, protein assay
Histone deacetylase 2 = Histone deacetylase 2 (Homo sapiens, UniProt Q92769); assay: Inhibition of HDAC2 (unknown origin) using Boc-Lys(acetyl)-AMC as substrate preincubated for 5 mins followed by substrate addition measured after 30 mins by fluorescence assay; type: ADME
[3] = molecular target: T1, Protein deacetylase HDAC6; assay: Inhibition of HDAC6 (unknown origin) using Boc-Lys(acetyl)-AMC as substrate preincubated for 5 mins followed by substrate addition measured after 30 mins by fluorescence assay
Histone deacetylase 8 = molecular target: T2, Histone deacetylase 8 (Homo sapiens, UniProt Q9BY41); assay: Inhibition of HDAC8 (unknown origin) using Boc-Lys(trifluoroacetyl)-AMC as substrate preincubated for 5 mins followed by substrate addition measured after 30 mins by fluorescence assay
T2 sequence (Q9BY41 whole entry): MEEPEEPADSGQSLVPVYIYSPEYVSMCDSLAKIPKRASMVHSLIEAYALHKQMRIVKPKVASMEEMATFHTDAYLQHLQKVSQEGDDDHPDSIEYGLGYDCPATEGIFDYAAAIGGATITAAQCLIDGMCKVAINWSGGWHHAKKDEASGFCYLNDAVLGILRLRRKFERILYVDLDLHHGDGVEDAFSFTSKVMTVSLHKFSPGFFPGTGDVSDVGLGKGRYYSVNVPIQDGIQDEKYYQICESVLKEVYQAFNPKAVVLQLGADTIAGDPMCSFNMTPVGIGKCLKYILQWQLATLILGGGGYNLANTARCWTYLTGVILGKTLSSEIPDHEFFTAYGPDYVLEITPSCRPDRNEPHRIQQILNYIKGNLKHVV

Jurkat = assay: Antiproliferative activity against human Jurkat cells after 48 hrs by MTT assay; type: functional, cell-based
MOLT-4 = assay: Antiproliferative activity against human MOLT4 cells after 48 hrs by MTT assay; type: functional, cell-based; conditions: MOLT-4, 48 h
[4] = Antiproliferative activity against human SK-N-BE(2) cells after 48 hrs by MTT assay; type: functional, cell-based; conditions: SKNBE2, 48 h
PC-3 = assay: Antiproliferative activity against human PC3 cells after 48 hrs by MTT assay; type: functional, cell-based; conditions: PC-3, 48 h
HeLa = assay: Antiproliferative activity against human HeLa cells after 48 hrs by MTT assay; type: functional, cell-based
K562 = assay: Antiproliferative activity against human K562 cells after 48 hrs by MTT assay; type: functional, cell-based; conditions: K562, 48 h
HEL = assay: Antiproliferative activity against human HEL cells after 48 hrs by MTT assay; type: functional, cell-based
Homo sapiens [5] = species: Homo sapiens; assay: Selectivity ratio of IC50 for HDAC2 (unknown origin) to IC50 for HDAC8 (unknown origin)
Homo sapiens [6] = species: Homo sapiens; assay: Selectivity ratio of IC50 for HDAC6 (unknown origin) to IC50 for HDAC8 (unknown origin)
[7] = molecular target: Histone deacetylase 1/2/3 (Homo sapiens, UniProt Q13547+O15379+Q92769); assay: Inhibition of HDAC1/2/3 in human HeLa cells assessed as increase in acetyl-histone H4 level at 2 uM after 12 hrs by Western blot analysis

Histone deacetylase 2, sequence (Q92769 whole entry): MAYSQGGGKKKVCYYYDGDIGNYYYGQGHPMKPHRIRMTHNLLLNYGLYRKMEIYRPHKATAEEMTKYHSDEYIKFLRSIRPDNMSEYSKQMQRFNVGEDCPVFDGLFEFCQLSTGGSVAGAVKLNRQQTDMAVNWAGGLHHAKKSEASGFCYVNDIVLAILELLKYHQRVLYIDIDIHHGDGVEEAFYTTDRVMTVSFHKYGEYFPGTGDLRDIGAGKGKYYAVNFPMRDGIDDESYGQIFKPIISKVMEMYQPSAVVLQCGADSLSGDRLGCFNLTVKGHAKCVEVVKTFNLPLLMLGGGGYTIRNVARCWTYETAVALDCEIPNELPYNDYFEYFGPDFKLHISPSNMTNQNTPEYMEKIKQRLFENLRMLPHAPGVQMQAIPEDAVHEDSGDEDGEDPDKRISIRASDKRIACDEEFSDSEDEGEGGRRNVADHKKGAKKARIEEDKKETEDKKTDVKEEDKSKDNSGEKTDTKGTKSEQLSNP

Structure (SMILES): O=C(CCCCCCC(=O)Nc1ccccc1)NO [VORINOSTAT]
inhibition (INH) [1]: Active

Structure (SMILES): O=C(NO)c1cccc(S(=O)(=O)NCc2ccccc2)c1
IC50 [2]: > 20 µM
IC50 (Histone deacetylase 2): 47.1 µM
IC50 [3]: 2.6 µM
IC50 (Histone deacetylase 8): 0.08 µM
IC50 (Jurkat): 12.2 µM
IC50 (MOLT-4): 11.1 µM
IC50 [4]: 36.2 µM
IC50 (PC-3): > 50 µM
IC50 (HeLa): > 50 µM
IC50 (K562): > 50 µM
IC50 (HEL): > 50 µM
Ratio IC50 (Homo sapiens [5]): > 180
Ratio IC50 (Homo sapiens [6]): 30
inhibition (INH) [1]: Not Active
INH [7]: Not Active

Structure (SMILES): COc1ccc(NC(=O)[C@H](Cc2c[nH]c3ccccc23)NS(=O)(=O)c2cccc(C(=O)NO)c2)cc1
IC50 [2]: > 20 µM

Structure (SMILES): O=C(NO)c1cccc(S(=O)(=O)N[C@@H](Cc2c[nH]c3ccccc23)C(=O)NCc2ccccc2)c1
IC50 [2]: > 20 µM
IC50 (Histone deacetylase 2): > 100 µM
IC50 [3]: 24.5 µM
IC50 (Histone deacetylase 8): 19 µM

Structure (SMILES): CN1CCc2c(c3ccccc3n2Cc2ccc(C(=O)NO)cc2)C1 [TUBASTATIN A]
inhibition (INH) [1]: Active

Structure (SMILES): COc1ccc(Cn2ccc3ccc(C(=O)NO)cc32)cc1
IC50 (Jurkat): 4.5 µM
IC50 (MOLT-4): 9.4 µM
IC50 [4]: 16.9 µM
IC50 (PC-3): 19.2 µM
IC50 (HeLa): > 25 µM
IC50 (K562): > 25 µM
IC50 (HEL): 10.8 µM

Structure (SMILES): O=C(NO)c1cccc(S(=O)(=O)N[C@@H](Cc2c[nH]c3ccccc23)C(=O)Nc2ccc(F)cc2)c1
IC50 [2]: > 20 µM

Structure (SMILES): O=C(NO)c1cccc(S(=O)(=O)N[C@H](C(=O)NCc2ccccc2)c2ccccc2)c1
IC50 [2]: > 20 µM
IC50 (Histone deacetylase 2): > 100 µM
IC50 [3]: 34 µM
IC50 (Histone deacetylase 8): 9.2 µM

Structure (SMILES): O=C(NO)c1cccc(S(=O)(=O)N[C@@H](Cc2c[nH]c3ccccc23)C(=O)Nc2ccc(Cl)cc2)c1
IC50 [2]: > 20 µM

Structure (SMILES): O=C(NO)c1cccc(S(=O)(=O)NCCc2ccccc2)c1
IC50 [2]: > 20 µM
IC50 (Histone deacetylase 2): 11.2 µM
IC50 [3]: 1.8 µM
IC50 (Histone deacetylase 8): 0.06 µM
IC50 (Jurkat): 7.9 µM
IC50 (MOLT-4): 6.2 µM
IC50 [4]: 25.5 µM
IC50 (PC-3): > 50 µM
IC50 (HeLa): > 50 µM
IC50 (K562): > 50 µM
IC50 (HEL): 32.8 µM
Ratio IC50 (Homo sapiens [5]): > 180
Ratio IC50 (Homo sapiens [6]): 30
inhibition (INH) [1]: Not Active
INH [7]: Not Active

Structure (SMILES): O=C(/C=C/c1cccc(S(=O)(=O)Nc2ccccc2)c1)NO [BELINOSTAT]
IC50 (Jurkat): 0.07 µM
IC50 (MOLT-4): 0.14 µM
IC50 [4]: 0.31 µM
IC50 (HeLa): 0.51 µM
IC50 (HEL): 0.1 µM

More lines, main results first:

IC50 [2]: > 20 µM
IC50 (Histone deacetylase 2): > 100 µM
IC50 [3]: 27.7 µM
IC50 (Histone deacetylase 8): 24.2 µM
Structure (SMILES): C[C@H](NS(=O)(=O)c1cccc(C(=O)NO)c1)C(=O)Nc1ccccc1

IC50 [2]: > 20 µM
IC50 (Histone deacetylase 2): > 100 µM
IC50 [3]: 6.7 µM
IC50 (Histone deacetylase 8): 0.91 µM
Structure (SMILES): O=C(NO)c1cccc(S(=O)(=O)N[C@H](C(=O)Nc2ccccc2)c2ccccc2)c1

IC50 [2]: > 20 µM
Structure (SMILES): O=C(NO)c1cccc(S(=O)(=O)N[C@H](C(=O)Nc2ccc(Cl)cc2)c2ccccc2)c1

IC50 [2]: > 20 µM
IC50 (Histone deacetylase 2): > 100 µM
IC50 [3]: 40.5 µM
IC50 (Histone deacetylase 8): 33.9 µM
Structure (SMILES): CC(C)[C@H](NS(=O)(=O)c1cccc(C(=O)NO)c1)C(=O)Nc1ccccc1

IC50 [2]: > 20 µM
Structure (SMILES): COc1ccc(NC(=O)[C@@H](NS(=O)(=O)c2cccc(C(=O)NO)c2)c2ccccc2)cc1

IC50 [2]: > 20 µM
IC50 (Histone deacetylase 2): 70.4 µM
IC50 [3]: 5.9 µM
IC50 (Histone deacetylase 8): 3 µM
Structure (SMILES): O=C(NO)c1cccc(S(=O)(=O)N[C@@H](Cc2c[nH]c3ccccc23)C(=O)Nc2ccccc2)c1

IC50 [2]: > 20 µM
Structure (SMILES): O=C(NO)c1cccc(S(=O)(=O)N[C@H](C(=O)Nc2ccc(F)cc2)c2ccccc2)c1

IC50 [2]: > 20 µM
IC50 (Histone deacetylase 2): 14.5 µM
IC50 [3]: 1.5 µM
IC50 (Histone deacetylase 8): 0.05 µM
IC50 (Jurkat): 28.4 µM
IC50 (MOLT-4): 22.6 µM
IC50 (PC-3): > 50 µM
IC50 (HeLa): > 50 µM
IC50 (K562): > 50 µM
Ratio IC50 (Homo sapiens [5]): > 180
Ratio IC50 (Homo sapiens [6]): 30
inhibition (INH) [1]: Not Active
INH [7]: Not Active
Structure (SMILES): O=C(NO)c1cccc(S(=O)(=O)Nc2ccccc2)c1
IC50 (HEL): > 50 µM

IC50 [2]: > 20 µM
IC50 (Histone deacetylase 2): > 100 µM
IC50 [3]: 14.1 µM
IC50 (Histone deacetylase 8): 3.5 µM
Structure (SMILES): O=C(CNS(=O)(=O)c1cccc(C(=O)NO)c1)Nc1ccccc1
